According to patent US5141929A, “Lipophilic ethers and/or esters of D-desosamine and their compositions as anti-bacteria and anti-fungus agents” (Societe Anonyme dite: L'Oreal, priority 1988, dated 1992):
Converted amounts (≈) assume the structure as drawn. Like-named read-outs stand apart in the source and are kept apart here.

Experiments:
[1] = test system: P37 E⊕ (sensitive); experiment: MIC by dilution method, erythromycin-sensitive P. acnes strain P37 E⊕; format: cell-based, propionibacterium acnes; details: Cutibacterium acnes
From the text: (§1) The activity of the esters and/or ethers of D-desosamine has been studied by the dilution method to determine the minimum inhibiting concentration (MIC) This method is described and employed by G.A. Denys et al, Antimicrobial Agents and Chemotherapy (1983) 23, 335-337 and J.J. Leyden et al, J. Am. Acad. Dermatol. (1983) 8 (1) 41-5, by using as the procionibacterium acnes strain, strain P37 furnished by Cunliffe and Holland.
(§2) On the other hand, after 8 successive sub-cultures in the same medium (RCM* 19/20, DMSO […] by volume) with the view of obtaining a progressive stabilization of this strain in this medium, a progressive resistance to erythromycin was manifested in the following form:
(§3) after spreading a standardized inoculum (DO=1.8 at 450 nm) on a gelose medium (RCM+furazolidone), in a Petri dish, a 9 mm diameter disc is deposited at its center. On the disc, 50 μg of erythromycin (in solution in DMSO) are deposited.
(§4) After 6 days at 36° C. in an anerobic medium (GAS-PAK, B.B.L. system) an inhibition zone of the growth of the strain is clearly visible (total diameter=42 mm), the majority of the colonies being situated at the periphery of the inhibition zone.
(§5) The two types of colonies are then retained by stripping of the gelose medium (sterilized platinum loop):
(§6) (2) at 1 cm beyond the periphery of the inhibition zone, there are stripped off strains called P37 E⊕.
(§7) After isolation and culturing, the P37 E⊕ and P37 E⊖ strains effectively show very different sensitivities to erythromycin as illustrated by the following respective MIC values.
(§8) The minimum inhibiting concentration (MIC), expressed in μg/ml of the esters and/or ethers of D-desosamine tested vis-a-vis strains of propionibacterium Acnes P37, P37E⊕ and P37E⊖ and staphilococcus epidermidis ATCC 12228, is reported in the following Table I.

[2] = test system: P37 E⊖ (resistant); experiment: MIC by dilution method, erythromycin-resistant P. acnes strain P37 E⊖; format: cell-based, propionibacterium acnes; details: Cutibacterium acnes
From the text: as §1, §2, §3, §4, §5
(§9) (1) at the interior of the inhibition zone there are stripped off strains, called P37 E⊖ by reason of their apparent resistance to erythromycin.
as §7, §8

[3] = test system: staphilococcus epidermidis ATCC 12228; experiment: MIC by dilution method, staphilococcus epidermidis ATCC 12228; format: cell-based; details: Table I, read-out: minimum inhibiting concentration (MIC), ATCC 12228
From the text: as §1, §8

[4] = test system: propionibacterium Acnes P37; experiment: MIC by dilution method, Propionibacterium acnes strain P37; format: cell-based; details: Cutibacterium acnes
From the text: as §1
This P37 strain has been the object of studies described in the following publications:
as §8

[5] = test system: P37 E⊖; experiment: IC 50 (50% survivors at constant culturing time), strain P37 E⊖; format: cell-based, propionibacterium acnes; details: Cutibacterium acnes, read-out: IC 50 (inhibiting concentration at 50%), P37 E⊖
From the text: as §9
(§10) This phenomenon is confirmed by the study of the IC 50 (inhibiting concentration at 50%) which represents the concentration of erythromycin where, at a constant culturing time, 50% survivors among the population are found.

[6] = test system: P37; experiment: IC 50 (50% survivors at constant culturing time), strain P37; format: cell-based, propionibacterium acnes; details: Cutibacterium acnes, read-out: IC 50 (inhibiting concentration at 50%), P37
From the text: as §10

[7] = test system: P37; experiment: Disc diffusion inhibition zone on gelose medium, sub-cultured strain P37; format: cell-based, propionibacterium acnes; details: Cutibacterium acnes, 144 h, read-out: inhibition zone of the growth of the strain, total diameter
Procedure: as §2, §3, §4

[8] = test system: P37 E⊕; experiment: IC 50 (50% survivors at constant culturing time), strain P37 E⊕; format: cell-based, propionibacterium acnes; details: Cutibacterium acnes, read-out: IC 50 (inhibiting concentration at 50%), P37 E⊕
From the text: as §6, §10

[9] = Table I, erythromycin-sensitive, read-out: minimum inhibiting concentration (MIC), P37 E⊕ (sensitive)
[10] = read-out: minimum inhibiting concentration (MIC), P37 E⊖ (resistant)
[11] = ACNESP37, Table I, P. acnes P37, read-out: minimum inhibiting concentration (MIC), P37

| SMILES | MIC [1, 9] [µg/mL] | MIC [2, 10] [µg/mL] | MIC [3] [µg/mL] | MIC [4, 11] [µg/mL] | IC50 [5] [µg/mL] | IC50 [6] [µg/mL] | MIC ([1]; read-out: MIC, P37 E⊕) [µg/mL] | zone of inhibition at 50 µg/disc [7] [mm] | MIC ([2]; read-out: MIC, P37 E⊖) [µg/mL] | IC50 [8] [µg/mL] | MIC ([4]; ACNESP37, read-out: minimum inhibiting concentration (MIC), P37) [µg/mL] |
| --- | --- | --- | --- | --- | --- | --- | --- | --- | --- | --- | --- |
| CCCCC/C=C\C/C=C\CCCCCCCC(=O)O[C@H]1C(OCCCC)O[C@H](C)C[C@@H]1N(C)C (stereo partly drawn) [Compound 6, O-linoleoyl-2-O-butyl-1-α,β-D-desosamine] | 0.7 (≈ 1.42 µM) | 0.8 (≈ 1.62 µM) | 0.2 (≈ 0.405 µM) | 0.4 (≈ 0.81 µM) | – | – | – | – | – | – | – |
| CCCCCCCCCCCC(=O)O[C@H]1[C@@H](OC)O[C@H](C)C[C@@H]1N(C)C [Compound 5, O-dodecanoyl-2-O-methyl-1-α-D-desosamine] | 50 (≈ 135 µM) | – | 3.2 (≈ 8.61 µM) | 50 (≈ 135 µM) | – | – | – | – | – | – | – |
| CC[C@H]1OC(=O)[C@H](C)[C@@H](O[C@H]2C[C@@](C)(OC)[C@@H](O)[C@H](C)O2)[C@H](C)[C@@H](O[C@@H]2O[C@H](C)C[C@H](N(C)C)[C@H]2O)[C@](C)(O)C[C@@H](C)C(=O)[C@H](C)[C@@H](O)[C@]1(C)O [erythromycin] | – | – | – | – | 100 (≈ 136 µM) | 50 (≈ 68.1 µM) | 0.78 (≈ 1.06 µM) | 42 | 50 (≈ 68.1 µM) | 5 (≈ 6.81 µM) | 0.78 (≈ 1.06 µM) |
| CCCCCCCCCCCC(=O)O[C@H]1C(OC)O[C@H](C)C[C@@H]1N(C)C (stereo partly drawn) [Compound 4, O-dodecanoyl-2-O-methyl-1-α,β-D-desosamine] | 15 (≈ 40.4 µM) | – | 3.8 (≈ 10.2 µM) | 25 (≈ 67.3 µM) | – | – | – | – | – | – | – |
| CCCCCCCCCC(=O)O[C@H]1C(OCCCC)O[C@H](C)C[C@@H]1N(C)C (stereo partly drawn) [Compound 1, O-decanoyl-2-O-butyl-1-α,β-D-desosamine] | 9 (≈ 23.3 µM) | 3.2 (≈ 8.3 µM) | 5 (≈ 13 µM) | 9 (≈ 23.3 µM) | – | – | – | – | – | – | – |
| CCCCCCCCOC1O[C@H](C)C[C@H](N(C)C)[C@H]1OCCCCCCCC (stereo partly drawn) [Compound 14, di-O-octyl-1,2-α,β-D-desosamine] | 0.6 (≈ 1.5 µM) | 0.1 (≈ 0.25 µM) | 0.5 (≈ 1.25 µM) | 0.5 (≈ 1.25 µM) | – | – | – | – | – | – | – |
| CCCCCCCCCCCC(=O)O[C@H]1[C@H](OCCCC)O[C@H](C)C[C@@H]1N(C)C [Compound 3, O-dodecanoyl-2-O-butyl-1-β-D-desosamine] | 0.1 (≈ 0.242 µM) | 1.9 (≈ 4.59 µM) | – | 15 (≈ 36.3 µM) | – | – | – | – | – | – | – |
| CCCCCCCCCCCCCCCCCCO[C@H]1C(OCCCC)O[C@H](C)C[C@@H]1N(C)C (stereo partly drawn) [Compound 8, O-octadecyl-2-O-butyl-1-α,β-D-desosamine] | < 0.03 | 8.8 (≈ 18.2 µM) | 2.2 (≈ 4.55 µM) | 0.25 (≈ 0.517 µM) | – | – | – | – | – | – | – |
| CCCCCCCCCCCCCCCCCCO[C@H]1[C@H](OCCCC)O[C@H](C)C[C@@H]1N(C)C [Compound 10] | 0.09 (≈ 0.186 µM) | 1.56 (≈ 3.22 µM) | 0.04 (≈ 0.0827 µM) | 3.12 (≈ 6.45 µM) | – | – | – | – | – | – | – |
